Assay results taken from patent US9080214B2, “Genetic markers for efficacy of iloperidone in the treatment of psychotic symptoms” (Vanda Pharmaceuticals, Inc., priority 2007, dated 2015).

Test system: individuals diagnosed with schizophrenia
Experiment: Change in PANSS-P subscale by SNP genotype, patients on iloperidone 24 mg/day b.i.d. for 28 days (MMRM)
Assay type: in vivo, human
Excerpt: Earlier studies investigated an association between a polymorphism in the CNTF gene and iloperidone efficacy as well as associations between CYP2D6 and KCNQ1 genotypes and changes in QT interval following the administration of iloperidone. The present study involved the genotyping of DNA samples collected from 426 individuals diagnosed with schizophrenia in an attempt to identify additional SNPs associated with iloperidone efficacy. Each sample was genotyped at more than 500,000 SNP loci using the GeneChip® Human Mapping 500K Array Set (Affymetrix, Santa Clara, Calif.) and using assays developed in-house. Approximately half of the participants in the study were administered 24 mg/day of iloperidone, b.i.d., for 28 days. About 25% of the patients were administered ziprasidone. The remaining participants were administered a placebo. Three analyses of the PANSS-T were conducted. 1) A two-step approach where samples were randomly split into 2 groups of iloperidone-treated patients used to discover SNPs associated with changed in PANSS-T (Discovery phase) and a second group to confirm the 100 most significant SNPs (Confirmatory phase). 2) A one-step approach using the Last Observation Carried Forward (LOCF) PANSS-T data of all iloperidone-treated patients. For each SNP, the most parsimonious genetic model (e.g., homozygous for one allele v. all other genotypes [i.e., AA v. AB and BB], heterozygous v. homozygous [i.e., AB v. AA and BB]) was established with respect to iloperidone efficacy using a one-way analysis of variance (ANOVA). 3) A Mixed-effects Model Repeated Measures (MMRM) analysis was subsequently conducted using the best genetic model of each SNP in the MMRM model. MMRM analyses were also conducted with the PANSS subscales PANSS-P, PANSS-N, and PANSS-GP. The SNPs with a statistically significant association in all 3 analyses of PANSS-T, as well as the best of each analysis were considered significant findings and are listed below in Table 1. Results for each of these SNPs with the PANSS-T scales and with the three subscales PANSS-P, PANSS-N, and PANSS-GP are shown in Tables 2, 3, 4, and 5, respectively. […] In the present case of iloperidone efficacy, it is likely that different markers are more specifically associated with one or a few specific clinical symptoms, which is reflected in the improvement measured in separate subscales.

COc1cc(C(C)=O)ccc1OCCCN1CCC(c2noc3cc(F)ccc23)CC1 [iloperidone, 1-[4-[3-[4-(6-fluoro-1,2-benzisoxazol-3-yl)-1-piperidinyl]propoxy]-3-methoxyphenyl]ethanone]
mean of change in PANSS-P (SNP_A-1819750 (CREG1) genotype A_A): −5.31
mean of change in PANSS-P (SNP_A-1819750 (CREG1) genotype A_B*): −4.28
mean of change in PANSS-P (SNP_A-1819750 (CREG1) genotype B_B): −5.02
mean of change in PANSS-P (SNP_A-1819750 (CREG1) genotype nonAB**): −5.11
mean of change in PANSS-P (SNP_A-1860353 (RAP1B) genotype A_A**): −9.20
mean of change in PANSS-P (SNP_A-1860353 (RAP1B) genotype A_B): −4.42
mean of change in PANSS-P (SNP_A-1860353 (RAP1B) genotype B_B): −4.28
mean of change in PANSS-P (SNP_A-1860353 (RAP1B) genotype nonAA*): −4.30
mean of change in PANSS-P (SNP_A-1934663 genotype A_A): −5.65
mean of change in PANSS-P (SNP_A-1934663 genotype A_B): −5.78
mean of change in PANSS-P (SNP_A-1934663 genotype B_B*): −3.40
mean of change in PANSS-P (SNP_A-1934663 genotype nonBB**): −5.75
mean of change in PANSS-P (SNP_A-1973093 (KIAA0040) genotype A_A): −5.12
mean of change in PANSS-P (SNP_A-1973093 (KIAA0040) genotype A_B*): −2.58
mean of change in PANSS-P (SNP_A-1973093 (KIAA0040) genotype B_B): −5.64
mean of change in PANSS-P (SNP_A-1973093 (KIAA0040) genotype nonAB**): −5.54
mean of change in PANSS-P (SNP_A-1975928 (SLC2A9) genotype A_A): −4.60
mean of change in PANSS-P (SNP_A-1975928 (SLC2A9) genotype A_B): −4.79
mean of change in PANSS-P (SNP_A-1975928 (SLC2A9) genotype B_B*): 6.19
mean of change in PANSS-P (SNP_A-1975928 (SLC2A9) genotype nonBB**): −4.65
mean of change in PANSS-P (SNP_A-1987915 (GPR126) genotype A_A): −3.53
mean of change in PANSS-P (SNP_A-1987915 (GPR126) genotype A_B): −3.43
mean of change in PANSS-P (SNP_A-1987915 (GPR126) genotype B_B**): −5.95
mean of change in PANSS-P (SNP_A-1987915 (GPR126) genotype nonBB*): −3.45
mean of change in PANSS-P (SNP_A-2007721 (LOC58486) genotype A_A): −1.70
mean of change in PANSS-P (SNP_A-2007721 (LOC58486) genotype A_B**): −7.48
mean of change in PANSS-P (SNP_A-2007721 (LOC58486) genotype B_B): −3.42
mean of change in PANSS-P (SNP_A-2007721 (LOC58486) genotype nonAB*): −3.41
mean of change in PANSS-P (SNP_A-2044214 (HNT) genotype A_A): −5.77
mean of change in PANSS-P (SNP_A-2044214 (HNT) genotype A_B*): −2.08
mean of change in PANSS-P (SNP_A-2044214 (HNT) genotype B_B): −5.64
mean of change in PANSS-P (SNP_A-2044214 (HNT) genotype nonAB**): −5.73
mean of change in PANSS-P (SNP_A-2048427 (NPAS3) genotype A_A): −6.16
mean of change in PANSS-P (SNP_A-2048427 (NPAS3) genotype A_B): −6.26
mean of change in PANSS-P (SNP_A-2048427 (NPAS3) genotype B_B*): −3.61
mean of change in PANSS-P (SNP_A-2048427 (NPAS3) genotype nonBB**): −6.24
mean of change in PANSS-P (SNP_A-2070454 (NKX2-5) genotype A_A): −4.04
mean of change in PANSS-P (SNP_A-2070454 (NKX2-5) genotype A_B): −3.89
mean of change in PANSS-P (SNP_A-2070454 (NKX2-5) genotype B_B**): −5.75
mean of change in PANSS-P (SNP_A-2070454 (NKX2-5) genotype nonBB*): −3.94
mean of change in PANSS-P (SNP_A-2076797 (NUDT9P1) genotype A_A): −2.57
mean of change in PANSS-P (SNP_A-2076797 (NUDT9P1) genotype A_B**): −6.55
mean of change in PANSS-P (SNP_A-2076797 (NUDT9P1) genotype B_B): −2.27
mean of change in PANSS-P (SNP_A-2076797 (NUDT9P1) genotype nonAB*): −2.42
mean of change in PANSS-P (SNP_A-2103099 (HTR1A) genotype A_A): −6.05
mean of change in PANSS-P (SNP_A-2103099 (HTR1A) genotype A_B*): −2.88
mean of change in PANSS-P (SNP_A-2103099 (HTR1A) genotype B_B): −5.88
mean of change in PANSS-P (SNP_A-2103099 (HTR1A) genotype nonAB**): −5.95
mean of change in PANSS-P (SNP_A-2120958 genotype A_A): −4.97
mean of change in PANSS-P (SNP_A-2120958 genotype A_B): −4.92
mean of change in PANSS-P (SNP_A-2120958 genotype B_B*): 1.49
mean of change in PANSS-P (SNP_A-2120958 genotype nonBB**): −4.95
mean of change in PANSS-P (SNP_A-2170121 (C6) genotype A_A): −3.49
mean of change in PANSS-P (SNP_A-2170121 (C6) genotype A_B**): −6.98
mean of change in PANSS-P (SNP_A-2170121 (C6) genotype B_B): −4.26
mean of change in PANSS-P (SNP_A-2170121 (C6) genotype nonAB*): −3.56
mean of change in PANSS-P (SNP_A-2274533 (LZTS1) genotype A_A**): −5.34
mean of change in PANSS-P (SNP_A-2274533 (LZTS1) genotype A_B): −2.64
mean of change in PANSS-P (SNP_A-2274533 (LZTS1) genotype B_B): −2.63
mean of change in PANSS-P (SNP_A-2274533 (LZTS1) genotype nonAA*): −2.63
mean of change in PANSS-P (SNP_A-2283283 (XKR4) genotype A_A*): −1.85
mean of change in PANSS-P (SNP_A-2283283 (XKR4) genotype A_B): −4.92
mean of change in PANSS-P (SNP_A-2283283 (XKR4) genotype B_B): −5.41
mean of change in PANSS-P (SNP_A-2283283 (XKR4) genotype nonAA**): −5.12
mean of change in PANSS-P (SNP_A-2284243 (GRIA4) genotype A_A): −5.09
mean of change in PANSS-P (SNP_A-2284243 (GRIA4) genotype A_B): −5.09
mean of change in PANSS-P (SNP_A-2284243 (GRIA4) genotype B_B*): −2.11
mean of change in PANSS-P (SNP_A-2284243 (GRIA4) genotype nonBB**): −5.09
mean of change in PANSS-P (SNP_A-4204396 (CDH13) genotype A_A): −4.76
mean of change in PANSS-P (SNP_A-4204396 (CDH13) genotype A_B): −4.99
mean of change in PANSS-P (SNP_A-4204396 (CDH13) genotype B_B*): 1.63
mean of change in PANSS-P (SNP_A-4204396 (CDH13) genotype nonBB**): −4.85
mean of change in PANSS-P (SNP_A-4212785 (PPP1R3B) genotype A_A*): 4.95
mean of change in PANSS-P (SNP_A-4212785 (PPP1R3B) genotype A_B): −4.78
mean of change in PANSS-P (SNP_A-4212785 (PPP1R3B) genotype B_B): −4.70
mean of change in PANSS-P (SNP_A-4212785 (PPP1R3B) genotype nonAA**): −4.73
mean of change in PANSS-P (SNP_A-4230979 (ASB3) genotype A_A): −2.80
mean of change in PANSS-P (SNP_A-4230979 (ASB3) genotype A_B): −3.63
mean of change in PANSS-P (SNP_A-4230979 (ASB3) genotype B_B**): −5.84
mean of change in PANSS-P (SNP_A-4230979 (ASB3) genotype nonBB*): −3.45
mean of change in PANSS-P (SNP_A-4256833 (MLCK) genotype A_A): −4.59
mean of change in PANSS-P (SNP_A-4256833 (MLCK) genotype A_B*): −2.78
mean of change in PANSS-P (SNP_A-4256833 (MLCK) genotype B_B): −5.14
mean of change in PANSS-P (SNP_A-4256833 (MLCK) genotype nonAB**): −5.10
mean of change in PANSS-P (SNP_A-4258279 (RRM1) genotype A_A): −5.01
mean of change in PANSS-P (SNP_A-4258279 (RRM1) genotype A_B*): −0.85
mean of change in PANSS-P (SNP_A-4258279 (RRM1) genotype B_B): −5.25
mean of change in PANSS-P (SNP_A-4258279 (RRM1) genotype nonAB**): −5.24
